Laboratory results from patent publication US20020156277A1, “Synthesis and methods of use of purine analogues and derivatives” (priority 2001, published 2002).
Where two headings read alike, the source gives them in different places.

Legend:
[1] = system: mice; assay: Passive avoidance test (block of cycloheximide-induced amnesia); format: in vivo; settings: Mus musculus, oral administration, amnestic agent 30 mg/kg cycloheximide i.p., read-out: minimum effective dose (MED)
[2] = system: mice; assay: as above; format: in vivo; settings: Mus musculus, 2 h, intraperitoneal administration two hours prior to training, amnestic agent 30 mg/kg cycloheximide i.p., read-out: minimum effective dose (MED)
Procedure: Passive avoidance is an acute memory paradigm in which mice are allowed to enter a dark compartment from a lighted compartment, but are given a footshock (2 mA for 5 seconds) when they enter the dark compartment. […] If an amnestic agent (30 mg/kg cycloheximide i.p. in saline) immediately after the training session is given to the animals, they will make the transition into the dark compartment (i.e., memory of the shock is lost). Compounds with suspected nootropic or anti-amnestic effects are given by i.p. administration two hours prior to the training trial in attempt to block the effects of cycloheximide. […] This behavioral response is defined as passive avoidance. A no effect response in this test is defined as a failure to stay in the lighted compartment for 120 seconds.

| SMILES | minimal effective dose [1] | minimal effective dose [2] |
| --- | --- | --- |
| CCOC(=O)c1ccc(NC(=O)CCn2cnc3c(=O)n(Cc4ccccc4)cnc32)cc1 [Example 1, 4-[3-(1-benzyl-6-oxo-1,6-dihydropurin-9-yl)propionylamino]benzoic acid ethyl ester] | 0.01 mg/kg | 0.0003 mg/kg |
| CCCCn1cnc2c(ncn2CCC(=O)Nc2ccc(C(=O)OCC)cc2)c1=O [Example 2, 4-[3-(1-butyl-6-oxo-1,6-dihydropurin-9-yl)propionylamino]benzoic acid ethyl ester] | – | 0.001 mg/kg |
| CCOC(=O)c1ccc(NC(=O)CCn2cnc3c(=O)n(C)cnc32)cc1 [Example 3, 4-[3-(1-methyl-6-oxo-1,6-dihydropurin-9-yl)propionylamino]benzoic acid ethyl ester] | – | 0.1 mg/kg |
| CCOC(=O)c1ccc(NC(=O)CCn2cnc3c(=O)n(CCN(C)C)cnc32)cc1 [Example 4, 4-[3-(1-(2-dimethylaminoethyl)-6-oxo-1,6-dihydropurin-9-yl)propionylamino]benzoic acid ethyl ester] | – | 1 mg/kg |
| CCOC(=O)c1ccc(NC(=O)CCn2cnc3c(=O)[nH]c(=O)[nH]c32)cc1 [Example 5, 4-[3-(2,6-dioxo-1,2,3,6-tetrahydropurin-9-yl)propionylamino]benzoic acid ethyl ester] | – | 0.001 mg/kg |
| CCOC(=O)c1ccc(NC(=O)CCn2cnc3c(N(C)C)ncnc32)cc1 [Example 7, 4-[3-(6-dimethylaminopurin-9-yl)propionylamino]benzoic acid ethyl ester] | – | 0.01 mg/kg |
| CCOC(=O)c1ccc(NC(=O)CCn2cnc3c(Cl)nc(N)nc32)cc1 [Example 8, 4-[3-(2-amino-6-chloropurin-9-yl)propionylamino]benzoic acid ethyl ester] | – | 0.01 mg/kg |
| CCOC(=O)c1ccc(NC(=O)C(C)n2cnc3c(=O)[nH]c(=S)[nH]c32)cc1 (stereo not drawn) [Example 9, 4-[2-(6-oxo-2-thioxo-1,2,3,6-tetrahydropurin-9-yl)propionylamino]benzoic acid ethyl ester] | 0.001 mg/kg | 0.0001 mg/kg |
| CCCCc1nc2c(ncn2C(C)C(=O)Nc2ccc(C(=O)OCC)cc2)c(=O)[nH]1 (stereo not drawn) [Example 10, 4-[2-(2-butyl-6-oxo-1,6-dihydropurin-9-yl)propionylamino]benzoic acid ethyl ester] | – | 0.1 mg/kg |
| CCOC(=O)c1ccc(NC(=O)C(C)n2cnc3c(=O)[nH]c(-c4ccccc4)nc32)cc1 (stereo not drawn) [Example 11, 4-[2-(6-oxo-2-phenyl-1,6-dihydropurin-9-yl)propionylamino]benzoic acid ethyl ester] | – | 10 mg/kg |
| COC(=O)c1ccc(N(C)C(=O)CCn2cnc3c(Cl)ncnc32)cc1 [Example 12, 4-{[3-(6-chloropurin-9-yl)propionyl]methylamino}benzoic acid methyl ester] | – | 0.0001 mg/kg |
| O=C(CCn1cnc2c(=O)n(Cc3ccccc3)cnc21)NCCCN1CCCC1=O [Example 13, 3-(1-benzyl-6-oxo-1,6-dihydropurin-9-yl)-N-[3-(2-oxopyrrolidin-1-yl)propyl]propionamide] | – | 1 mg/kg |
| O=C(CCn1cnc2c(=O)n(Cc3ccccc3)cnc21)NCCNC(=O)CN1CCCC1=O [Example 14, 3-(1-benzyl-6-oxo-1,6-dihydropurin-9-yl)-N-{2-[2-(2-oxopyrrolidin-1-yl)acetylamino]ethyl}propionamide] | – | 1 mg/kg |
